Key:
[1] = triazolam tablets administered orally; cited from earlier work
[2] = tested on: healthy, non-dependent, recreational sedative users; experiment: Human abuse potential study, Drug Liking VAS; type: in vivo; conditions: for Drug Liking VAS - EMAX LSMean: N = 50, 100 point bipolar scale; for Drug liking from placebo, Triazolam 1 mg compared with Triazolam 0.5 mg (words): 1 mg vs 0.5 mg
Procedure: This study was designed as a randomized, single-dose, double-blinded, double dummy, crossover study. The study population was healthy, nondependent recreational polydrug users with a history of Central Nervous System (CNS) depressant use.
Subjects were screened no more than 28 days before check-in of period 1. Study drug was administered in each period according to the study randomization schedule. During Qualification, there was a minimum 24 hour washout period between each study drug administration. During the Treatment phase, there was a minimum 48-hour washout period between each study drug administration. Subjects were confined to the unit the day prior to, and for at least approximately 24 hours following, study drug administration during each period. If subjects were discharged between treatment periods, subjects returned to the unit the day prior to dosing.
The Qualification Phase was designed to ensure that polydrug abusing subjects with self-reported recreational CNS depressant/sedative drug experience were able to tolerate and discriminate between orally administered triazolam tablets and placebo as well as to report positive subjective effects of the drug in a controlled laboratory setting. This phase was also used to exclude “placebo responders”, i.e., subjects who report subjective effects of placebo. This phase also helped familiarize subjects with, and trained them in the use of, various scales and questionnaires that measure subjective effects.
The comparators in an abuse potential study are typically controlled substances from the same pharmacologic class as the investigational drug. However, Compound (1C) is a novel drug class for which no controlled substances/drugs of abuse are available for comparison. […] There was no evidence of other effects of interest to abusers, such as perceptual disturbances or stimulation. […] Placebo control was used to establish the frequency and magnitude of changes in clinical endpoints that may occur in the absence of active treatment as well as to minimize subject and investigator bias.
In all of the study phases, treatments were blinded to the greatest extent possible to reduce potential bias during data collection and evaluation of clinical endpoints. Because study subjects were recreational drug users and familiar with the effects of the drug substances being studied, the double-dummy technique was be used in the Treatment Phase to maintain blinding. Subjects received tablets orally in each treatment period. Placebo was matched in size and shape to each of the tablet types, and a method to blind subjects will be employed.
For each phase, subjects received treatments according to the randomization schema. During the Treatment Phase, subjects were be randomized to 1 of sequences in a 6×6 Williams square crossover design.
Compound (1C) was administered orally in an immediate release tablet comprising the pharmaceutically acceptable excipients croscarmellose sodium (FMC Health and Nutrition, Philadelphia, Pa.), hydroxypropylcellulose (Ashland Inc., Covington, Ky.), microcrystalline cellulose (Dupont, Chicago, Ill.), mannitol (SPI Pharma, Wilmington, Del.), magnesium stearate (PlusPharma Inc., Vista, Calif.), and sodium lauryl sulfate (BASF Corp, Upper St. Clair, Pa.). […] Placebo tablets matching the Compound (1C) tablets were orally administered in the same way. The placebo tablets comprised the above-described pharmaceutically acceptable excipients but with no Compound (1C). Triazolam was administered at a dose of 0.5 or 1 mg. Trial endpoints are provided below.
Peak Maximum Effect (Emax) for Drug Liking (“at this moment”) visual analog scale (“VAS”), was measured by study participants providing a score on a 100 point bipolar scale with 100 as strong liking, 50 as the neutral point of neither liking nor disliking, and 0 as strong disliking. […]

[3] = tested on: healthy, non-dependent, recreational sedative users; experiment: Human abuse potential study, adverse events and tolerability; type: in vivo; conditions: N = 50
Procedure: Adverse events were coded to MedDRA terms. Data for AEs were analyzed using the treatment-emergent signs and symptoms (TESS) philosophy. Treatment-emergent signs and symptoms are defined as AEs that: • Emerge during treatment, having been absent at pretreatment; or • Reemerge during treatment, having been present at pretreatment but stopped prior to treatment; or • Worsen in intensity during treatment relative to the pretreatment state, when the AE is continuous.
Subjects were counted only once in the incidence count for a specific MedDRA Preferred Term, although a MedDRA Preferred Term might be reported more than once for a particular subject. Separate summaries will be provided for Treatment-emergent AEs (“TEAEs”) by maximum intensity (mild, moderate, severe) and relationship (yes, no) to study drug. A TEAE was considered related to study drug if the investigator reported the event to be “definitely, probably, possibly, or unlikely” related to treatment on the CRF.

Cc1nnc2n1-c1ccc(Cl)cc1C(c1ccccc1Cl)=NC2 [Triazolam, triazolam, reference compound]
Time to maximum concentration [1]: ~1.3 h | Drug Liking VAS - EMAX Diff from Placebo LSMean ([2]; 0.5 mg): 20.4 points | Drug liking compared with placebo (words) ([2]; 0.5 mg): significant | Drug Liking VAS - EMAX LSMean ([2]; 0.5 mg single oral dose): 75.5 | Drug liking compared with placebo (words) ([2]; 0.5 mg, listed as triazolam): significantly greater than placebo | Drug Liking VAS - EMAX Diff from Placebo LSMean ([2]; 1 mg): 23.5 points | Drug liking compared with placebo (words) ([2]; 1 mg): significant | Drug Liking VAS - EMAX LSMean ([2]; 1 mg single oral dose): 78.6 | Drug liking from placebo, Triazolam 1 mg compared with Triazolam 0.5 mg (words) [2]: Triazolam 1 mg had greater drug liking from | Drug liking from placebo, Triazolam 1 mg compared with Triazolam 0.5 mg (words) ([2]; listed as triazolam): greater drug liking from placebo than triazolam 0.5 mg | Drug liking compared with placebo (words) ([2]; 1 mg, listed as triazolam): significantly greater than placebo | Amnesia ([3]; 0.5 mg): 3 (6) n (%) | Ataxia ([3]; 0.5 mg): 21 (42) n (%) | Diplopia ([3]; 0.5 mg): 4 (8) n (%) | Dizziness ([3]; 0.5 mg): 7 (14) n (%) | Euphoric mood ([3]; 0.5 mg): 1 (2) n (%) | Headache ([3]; 0.5 mg): 2 (4) n (%) | Hiccups ([3]; 0.5 mg): 10 (20) n (%) | Nausea ([3]; 0.5 mg): 0 n (%) | Somnolence ([3]; 0.5 mg): 45 (90) n (%) | Vision blurred ([3]; 0.5 mg): 3 (6) n (%) | Amnesia ([3]; 1 mg): 12 (24) n (%) | Ataxia ([3]; 1 mg): 28 (56) n (%) | Diplopia ([3]; 1 mg): 5 (10) n (%) | Dizziness ([3]; 1 mg): 6 (12) n (%) | Euphoric mood ([3]; 1 mg): 2 (4) n (%) | Headache ([3]; 1 mg): 0 n (%) | Hiccups ([3]; 1 mg): 14 (28) n (%) | Nausea ([3]; 1 mg): 1 (2) n (%) | Somnolence ([3]; 1 mg): 49 (98) n (%) | Vision blurred ([3]; 1 mg): 2 (4) n (%)
